From the NIST ThermoML archive (doi:10.1016/j.jct.2006.05.004)
Numbers after ± are expanded uncertainties.

What was measured:
[1] = xn = mol fraction of the nth substance listed; settings: 298.15 K, 101 kPa, Liquid
[2] = excess molar enthalpy (molar enthalpy of mixing); xn = mol fraction of the nth substance listed; settings: 298.15 K, 101 kPa, Liquid
[3] = 298.15 K; 101.33 kPa; Liquid
[4] = refractive index (Na D-line) (dimensionless); settings: 298.15 K; 101.33 kPa; Liquid; Standard Abbe refractometry

BrCCCCCBr [1,5-dibromopentane] + COC=O
Settings | excess molar enthalpy [kcal/mol] | mass density [kg/m3]
[1], x2 = 0.1109 | – | 1653.22 ± 5.5
[1], x2 = 0.2235 | – | 1607 ± 4.9
[1], x2 = 0.3094 | – | 1567.09 ± 4.5
[1], x2 = 0.3956 | – | 1522.56 ± 4
[1], x2 = 0.4606 | – | 1485.39 ± 3.6
[1], x2 = 0.5307 | – | 1441.42 ± 3.3
[1], x2 = 0.5985 | – | 1394.16 ± 2.9
[1], x2 = 0.6548 | – | 1350.94 ± 2.6
[1], x2 = 0.7035 | – | 1310.4 ± 2.4
[1], x2 = 0.753 | – | 1265.54 ± 2.1
[1], x2 = 0.7889 | – | 1230.37 ± 1.9
[1], x2 = 0.8347 | – | 1181.99 ± 1.6
[1], x2 = 0.9065 | – | 1097.57 ± 1.2
[1], x2 = 0.9653 | – | 1017.86 ± 0.91
[1], x2 = 0.9733 | – | 1006.52 ± 0.87
[2], x2 = 0.1086 | 0.101 ± 0.00194 | –
[2], x2 = 0.2259 | 0.174 ± 0.00311 | –
[2], x2 = 0.336 | 0.227 ± 0.00382 | –
[2], x2 = 0.4363 | 0.255 ± 0.0043 | –
[2], x2 = 0.5163 | 0.265 ± 0.00454 | –
[2], x2 = 0.5848 | 0.264 ± 0.00454 | –
[2], x2 = 0.64 | 0.254 ± 0.0043 | –
[2], x2 = 0.6892 | 0.241 ± 0.00406 | –
[2], x2 = 0.7311 | 0.225 ± 0.00382 | –
[2], x2 = 0.7667 | 0.207 ± 0.00359 | –
[2], x2 = 0.8146 | 0.18 ± 0.00311 | –
[2], x2 = 0.8709 | 0.14 ± 0.00263 | –
[2], x2 = 0.9225 | 0.0935 ± 0.00186 | –
[2], x2 = 0.9675 | 0.046 ± 0.00117 | –

BrCCCCCCBr [1,6-dibromohexane] + CCC(=O)OC
Settings | excess molar enthalpy [kcal/mol] | mass density [kg/m3]
[1], x2 = 0.0903 | – | 1557.49 ± 4.9
[1], x2 = 0.1731 | – | 1517.27 ± 4.4
[1], x2 = 0.254 | – | 1475.55 ± 4
[1], x2 = 0.3276 | – | 1435.11 ± 3.6
[1], x2 = 0.3987 | – | 1393.7 ± 3.2
[1], x2 = 0.4603 | – | 1355.72 ± 2.9
[1], x2 = 0.5254 | – | 1313.37 ± 2.6
[1], x2 = 0.5807 | – | 1275.39 ± 2.3
[1], x2 = 0.6388 | – | 1233.34 ± 2
[1], x2 = 0.695 | – | 1190.53 ± 1.8
[1], x2 = 0.7429 | – | 1152.05 ± 1.5
[1], x2 = 0.7914 | – | 1111.32 ± 1.3
[1], x2 = 0.838 | – | 1070.17 ± 1.1
[1], x2 = 0.8789 | – | 1032.36 ± 0.91
[1], x2 = 0.9195 | – | 993.3 ± 0.79
[1], x2 = 0.9621 | – | 950.1 ± 0.9
[2], x2 = 0.0951 | 0.0356 ± 0.000932 | –
[2], x2 = 0.1915 | 0.0572 ± 0.00127 | –
[2], x2 = 0.2814 | 0.0727 ± 0.00151 | –
[2], x2 = 0.3659 | 0.0818 ± 0.00165 | –
[2], x2 = 0.4423 | 0.0858 ± 0.0017 | –
[2], x2 = 0.5073 | 0.0845 ± 0.00167 | –
[2], x2 = 0.5644 | 0.0809 ± 0.00163 | –
[2], x2 = 0.6136 | 0.076 ± 0.00155 | –
[2], x2 = 0.6648 | 0.067 ± 0.00141 | –
[2], x2 = 0.7136 | 0.0588 ± 0.00129 | –
[2], x2 = 0.7663 | 0.0488 ± 0.00112 | –
[2], x2 = 0.817 | 0.0397 ± 0.00098 | –
[2], x2 = 0.8647 | 0.0308 ± 0.00086 | –
[2], x2 = 0.9137 | 0.0207 ± 0.000693 | –
[2], x2 = 0.9606 | 0.0103 ± 0.00055 | –

BrCCCCCCBr [1,6-dibromohexane] + CCCC(=O)OC
Settings | excess molar enthalpy [kcal/mol] | mass density [kg/m3]
[1], x2 = 0.0254 | – | 1587.59 ± 5.3
[1], x2 = 0.0833 | – | 1555.83 ± 4.9
[1], x2 = 0.1606 | – | 1512 ± 4.4
[1], x2 = 0.2243 | – | 1474.58 ± 4
[1], x2 = 0.291 | – | 1434.05 ± 3.6
[1], x2 = 0.3545 | – | 1394.06 ± 3.3
[1], x2 = 0.4193 | – | 1351.87 ± 3
[1], x2 = 0.5445 | – | 1265.85 ± 2.3
[1], x2 = 0.6016 | – | 1224.52 ± 2
[1], x2 = 0.6573 | – | 1182.86 ± 1.8
[1], x2 = 0.7029 | – | 1147.73 ± 1.5
[1], x2 = 0.7563 | – | 1105.29 ± 1.3
[1], x2 = 0.8125 | – | 1059.12 ± 1.1
[1], x2 = 0.9056 | – | 978.87 ± 0.81
[2], x2 = 0.0838 | 0.018 ± 0.000645 | –
[2], x2 = 0.1878 | 0.0309 ± 0.00086 | –
[2], x2 = 0.2949 | 0.0395 ± 0.00098 | –
[2], x2 = 0.3961 | 0.0423 ± 0.00103 | –
[2], x2 = 0.4591 | 0.0405 ± 0.001 | –
[2], x2 = 0.5094 | 0.0383 ± 0.000956 | –
[2], x2 = 0.5864 | 0.0329 ± 0.000884 | –
[2], x2 = 0.6566 | 0.0287 ± 0.000813 | –
[2], x2 = 0.734 | 0.0232 ± 0.000741 | –
[2], x2 = 0.8128 | 0.0172 ± 0.000645 | –
[2], x2 = 0.8885 | 0.0108 ± 0.00055 | –
[2], x2 = 0.9526 | 0.00392 ± 0.00043 | –

BrCCCCCCBr [1,6-dibromohexane] + CCCCC(=O)OC
Settings | excess molar enthalpy [kcal/mol] | mass density [kg/m3]
[1], x2 = 0.0703 | – | 1557.19 ± 4.9
[1], x2 = 0.1394 | – | 1513.24 ± 4.5
[1], x2 = 0.2633 | – | 1432.4 ± 3.7
[1], x2 = 0.3222 | – | 1392.97 ± 3.4
[1], x2 = 0.3842 | – | 1350.7 ± 3
[1], x2 = 0.4472 | – | 1306.98 ± 2.7
[1], x2 = 0.5076 | – | 1264.24 ± 2.3
[1], x2 = 0.5698 | – | 1219.49 ± 2
[1], x2 = 0.6817 | – | 1136.77 ± 1.5
[1], x2 = 0.7372 | – | 1094.69 ± 1.3
[1], x2 = 0.8445 | – | 1011.22 ± 0.82
[1], x2 = 0.8993 | – | 967.47 ± 0.84
[1], x2 = 0.945 | – | 930.4 ± 0.93
[2], x2 = 0.0734 | 0.0108 ± 0.00055 | –
[2], x2 = 0.1653 | 0.0181 ± 0.000645 | –
[2], x2 = 0.264 | 0.0216 ± 0.000717 | –
[2], x2 = 0.3507 | 0.0227 ± 0.000717 | –
[2], x2 = 0.418 | 0.0213 ± 0.000693 | –
[2], x2 = 0.4743 | 0.0187 ± 0.000669 | –
[2], x2 = 0.5227 | 0.0154 ± 0.000621 | –
[2], x2 = 0.5866 | 0.0104 ± 0.000526 | –
[2], x2 = 0.6386 | 0.00703 ± 0.000478 | –
[2], x2 = 0.716 | 0.00251 ± 0.000406 | –
[2], x2 = 0.7966 | 4.78e-05 ± 0.000382 | –
[2], x2 = 0.879 | -0.000789 ± 0.000382 | –
[2], x2 = 0.9483 | -0.00012 ± 0.000382 | –

BrCCCCCCBr [1,6-dibromohexane] + COC(C)=O
Settings | excess molar enthalpy [kcal/mol] | mass density [kg/m3]
[1], x2 = 0.2073 | – | 1527.77 ± 4.4
[1], x2 = 0.2887 | – | 1489.28 ± 4
[1], x2 = 0.368 | – | 1448.7 ± 3.6
[1], x2 = 0.44 | – | 1408.44 ± 3.2
[1], x2 = 0.5134 | – | 1363.84 ± 2.9
[1], x2 = 0.5691 | – | 1327.2 ± 2.6
[1], x2 = 0.6301 | – | 1284.18 ± 2.3
[1], x2 = 0.7305 | – | 1205.44 ± 1.8
[1], x2 = 0.7765 | – | 1165.56 ± 1.6
[1], x2 = 0.8189 | – | 1126.42 ± 1.4
[1], x2 = 0.8614 | – | 1084.46 ± 1.2
[1], x2 = 0.8974 | – | 1046.81 ± 0.99
[1], x2 = 0.9345 | – | 1005.74 ± 0.82
[1], x2 = 0.9663 | – | 968.1 ± 0.88
[2], x2 = 0.1165 | 0.063 ± 0.00136 | –
[2], x2 = 0.2329 | 0.104 ± 0.00198 | –
[2], x2 = 0.317 | 0.13 ± 0.00239 | –
[2], x2 = 0.4064 | 0.148 ± 0.00263 | –
[2], x2 = 0.4865 | 0.156 ± 0.00287 | –
[2], x2 = 0.553 | 0.156 ± 0.00287 | –
[2], x2 = 0.6074 | 0.151 ± 0.00263 | –
[2], x2 = 0.6546 | 0.143 ± 0.00263 | –
[2], x2 = 0.6988 | 0.135 ± 0.00239 | –
[2], x2 = 0.7443 | 0.124 ± 0.00229 | –
[2], x2 = 0.7905 | 0.108 ± 0.00206 | –
[2], x2 = 0.837 | 0.0889 ± 0.00174 | –
[2], x2 = 0.8808 | 0.0701 ± 0.00148 | –
[2], x2 = 0.9257 | 0.0424 ± 0.00105 | –
[2], x2 = 0.9683 | 0.0205 ± 0.000717 | –

BrCCCCCCBr [1,6-dibromohexane] + COC=O
Settings | excess molar enthalpy [kcal/mol] | mass density [kg/m3]
[1], x2 = 0.0951 | – | 1574.69 ± 5
[1], x2 = 0.1373 | – | 1561.81 ± 4.8
[1], x2 = 0.18 | – | 1547.9 ± 4.6
[1], x2 = 0.2331 | – | 1529.55 ± 4.4
[1], x2 = 0.3709 | – | 1475.52 ± 3.8
[1], x2 = 0.4924 | – | 1417.67 ± 3.2
[1], x2 = 0.5984 | – | 1357.11 ± 2.7
[1], x2 = 0.6952 | – | 1290.94 ± 2.3
[1], x2 = 0.799 | – | 1204.62 ± 1.7
[1], x2 = 0.8251 | – | 1179.95 ± 1.6
[1], x2 = 0.9038 | – | 1095.21 ± 1.2
[1], x2 = 0.9183 | – | 1078.3 ± 1.1
[1], x2 = 0.9504 | – | 1037.23 ± 0.97
[1], x2 = 0.9718 | – | 1007.96 ± 0.87
[2], x2 = 0.099 | 0.0911 ± 0.00179 | –
[2], x2 = 0.2052 | 0.166 ± 0.00287 | –
[2], x2 = 0.3188 | 0.231 ± 0.00406 | –
[2], x2 = 0.4099 | 0.26 ± 0.0043 | –
[2], x2 = 0.4481 | 0.27 ± 0.00454 | –
[2], x2 = 0.5059 | 0.278 ± 0.00478 | –
[2], x2 = 0.5777 | 0.278 ± 0.00454 | –
[2], x2 = 0.6385 | 0.268 ± 0.00454 | –
[2], x2 = 0.69 | 0.252 ± 0.0043 | –
[2], x2 = 0.7201 | 0.241 ± 0.00406 | –
[2], x2 = 0.7507 | 0.227 ± 0.00382 | –
[2], x2 = 0.7946 | 0.203 ± 0.00359 | –
[2], x2 = 0.8411 | 0.169 ± 0.00311 | –
[2], x2 = 0.9115 | 0.108 ± 0.00208 | –
[2], x2 = 0.9775 | 0.0335 ± 0.001 | –

CCCC(=O)OC [methyl butanoate]
Settings | mass density [kg/m3] | refractive index
[3] | 892.42 ± 0.97 | –
[4] | – | 1.386 ± 0.0008
